Results published in patent US11667651B2, “Aminopyridine derivatives as phosphatidylinositol phosphate kinase inhibitors” (HiberCell, Inc., priority 2017, dated 2023).

Tests used:
PIP4K2B = molecular target: T1, PIP4K2B (Homo sapiens, UniProt P78356); assay: Trans-FI P kinase assay PIP4K2B (Table 4); format: biochemical; settings: compounds listed under IC50 bins; read-out: Trans-FI P kinase assays: PIP4K2B IC50
T1 construct: made in house; host or cells: E. coli
T1 sequence (P78356 1-416): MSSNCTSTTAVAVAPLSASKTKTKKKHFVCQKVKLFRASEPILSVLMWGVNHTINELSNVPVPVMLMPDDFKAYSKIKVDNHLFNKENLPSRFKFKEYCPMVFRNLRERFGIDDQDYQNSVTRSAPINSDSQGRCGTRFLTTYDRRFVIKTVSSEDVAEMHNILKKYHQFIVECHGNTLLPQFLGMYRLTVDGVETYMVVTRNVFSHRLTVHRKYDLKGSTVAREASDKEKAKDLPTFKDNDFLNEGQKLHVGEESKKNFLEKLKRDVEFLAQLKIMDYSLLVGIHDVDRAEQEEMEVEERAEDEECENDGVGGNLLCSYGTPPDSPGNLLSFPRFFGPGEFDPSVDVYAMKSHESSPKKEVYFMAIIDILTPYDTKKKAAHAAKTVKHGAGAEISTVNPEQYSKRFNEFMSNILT
From the text: GST tagged PIP4KtypeIIA and B enzymes were overexpressed in E. Coli and purified to >80% homogeneity. Phosphatidyl inositol-5-phosphate (PI5P, Cat. #850152, Avanti Polar Lipids Inc.) was used as the lipid substrate and phosphatidyl ethanolamine (DOPE 18:1, Cat. #850725, Avanti Polar Lipids Inc.) was used as the carrier lipid for assays. Ultrapure ATP and GTP was purchased from Bellbrooke Labs. ADP Glo reagents were obtained from Promega. Transcreener FI reagent was obtained from Bellbrooke labs.
GST-tagged PIP4KtypeIIB (3.4 μL, 2.77 mg/mL) was diluted to 5 mL using HNE buffer to yield 5× enzyme stock (25 nM)
Lipid Preparation: In a 10 mL pyrex glass vial, […] were suspended in 2.5 mL of HEPES buffer mix and 2.5 mL of H:E buffer. The contents were mixed and sonicated for 3 min to yield a translucent lipid stock.
Compound Preparation: Compounds were stored as 5 mM stocks in neat DMSO as room temperature in glass vials. 5 mM stocks were diluted to 2 mM and then serially diluted (3×) in neat DMSO in 96 well polypropylene plates. From the serially diluted stocks, 3 μL was delivered into 250 μL of 25% DMSO (in water) to generate 5× compound stocks. Typically, the highest compound conc. was 24 μM.
The assay volume was kept at 25 μL. To each well of the reaction plate, 10 μL of lipid stock (1:1 ratio PI5P:DOPE) was delivered. This was followed by the addition of 5 μL of compound in 25% DMSO. Then, to each well, 5 μL of 25 nM (5×) typeIIB enzyme was delivered. The contents were mixed well and incubated for 1 h at 27° C. After 1 h, reaction was initiated by adding 5 μL of 500 μM GTP and the contents were mixed well with a multi-channel pipetteman. The final concentration of the reagents are as follows: 50 mM HEPES, pH 7.3, 10 mM MgCl2, 20 mM NaCl, 0.01% v/v triton-X100, 5% DMSO, 100 μM GTP, 80 μM (2 μg) PI5P, 2 μg DOPE, and 5 nM PIP4KIIB Typically, the highest conc. of compounds was 4.8 μM and the lowest conc. was 0.
After 2 h, the reaction was quenched by adding 25 μL of transcreener FI reagent. The contents were incubated at rt for 1 h and the Fluorescence (Ex: 584 Em: 623) was read using Molecular Devices Paradigm plate reader. […] The blanks were averaged and subtracted from all other wells. Using a calibration curve, RFU was converted to μM GDP (product). IC50 was calculated by plotting the residual activity (expressed as % No inhibitor control) vs. log [Inh. conc.]

PIP4K2A = molecular target: T2, PIP4K2A (Homo sapiens, UniProt P48426); assay: ADP-glo kinase assay PIP4K 2A (Table 3); format: biochemical; parameters: made in house; host or cells: E. coli; settings: compounds listed under IC50 bins
T2 sequence (P48426 1-406): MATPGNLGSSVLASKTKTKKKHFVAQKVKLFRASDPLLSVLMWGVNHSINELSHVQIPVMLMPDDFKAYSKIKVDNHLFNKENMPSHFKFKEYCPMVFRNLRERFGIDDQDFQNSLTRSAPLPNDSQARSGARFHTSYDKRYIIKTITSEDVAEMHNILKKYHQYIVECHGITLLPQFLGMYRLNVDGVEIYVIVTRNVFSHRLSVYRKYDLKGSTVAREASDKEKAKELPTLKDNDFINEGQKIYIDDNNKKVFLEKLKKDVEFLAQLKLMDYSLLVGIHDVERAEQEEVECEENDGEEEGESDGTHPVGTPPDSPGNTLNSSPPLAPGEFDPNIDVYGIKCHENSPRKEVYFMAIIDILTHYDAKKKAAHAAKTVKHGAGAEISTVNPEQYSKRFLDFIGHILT
Procedure: Dilution series of the compounds were prepared in DMSO at 100 times the final assay concentration (n1=n0/3 in 10 points). The compounds were further diluted to three times the assay concentration in assay buffer (20 mM MOPS pH 7.2, 25 mM magnesium chloride, 0.005% Tween 20). 6 μL of the diluted compounds were added to a 384 well assay plate followed by 9 μL of a mix consisting of 4 nM PIP4K2A (full length protein, SignalChem) and 100 μM PI(5)P diC8 (Tebu-Bio). Enzyme and compounds were pre-incubated at room temperature for 15 minutes.
Then 3 μL of a solution containing 60 μM ATP (Promega) in assay buffer was added to the wells containing compound and enzyme and mixing was performed by pipetting several times. The reaction was incubated at room temperature for 1 h. Then 18 μL of ADP-Glo™ Reagent (Promega) was added to stop the kinase reaction and deplete the unconsumed ATP, mixing was performed by pipetting several times. The plate was incubated at room temperature for 40 minutes before addition of 36 μL of Kinase Detection Reagent (Promega) to convert ADP to ATP and introduce luciferase and luciferin to detect ATP. The reaction was incubated at room temperature for 40 minutes before the luminescence was measured in a in a Victor 3V 1420 multilabel counter (Perkin Elmer).
Percent inhibition of the compounds as compared to dimethyl sulfoxide treated control samples was calculated. Compound concentration versus percent inhibition were fitted to generate IC50 values. […]

SMILES | IC50 (PIP4K2B) | IC50 (PIP4K2A)
CN(C)C/C=C/C(=O)Nc1ccc(C(=O)Nc2cncc(Nc3ccc(-c4ccc(N5CCCC5=O)cc4)cn3)c2)cc1 [Example 167, (E)-4-(4-(dimethylamino)but-2-enamido)-N-(5-((5-(4-(2-oxopyrrolidin-1-yl)phenyl)pyridin-2-yl)amino)pyridin-3-yl)benzamide] | 10 to 100 nM | 10 to 100 nM
CN(C)CCCC(=O)Nc1ccc(C(=O)Nc2cncc(Nc3ccc(-c4ccc(N5CCCC5=O)cc4)cn3)c2)cc1 [Example 168, 4-(4-(dimethylamino)butanamido)-N-(5-((5-(4-(2-oxopyrrolidin-1-yl)phenyl)pyridin-2-yl)amino)pyridin-3-yl)benzamide] | 10 to 100 nM | 10 to 100 nM
CN(C)C/C=C/C(=O)Nc1cccc(CCC(=O)Nc2cncc(Nc3ccc(-c4ccc(N5CCCC5=O)cc4)cn3)c2)c1 [Example 169, (E)-4-(dimethylamino)-N-(3-(3-oxo-3-((5-((5-(4-(2-oxopyrrolidin-1-yl)phenyl)pyridin-2-yl)amino)pyridin-3-yl)amino)propyl)phenyl)but-2-enamide] | 10 to 100 nM | 10 to 100 nM
CN(C)CCCC(=O)Nc1cccc(CCC(=O)Nc2cncc(Nc3ccc(-c4ccc(N5CCCC5=O)cc4)cn3)c2)c1 [Example 170, 4-(dimethylamino)-N-(3-(3-oxo-3-((5-((5-(4-(2-oxopyrrolidin-1-yl)phenyl)pyridin-2-yl)amino)pyridin-3-yl)amino)propyl)phenyl)butanamide] | 10 to 100 nM | 10 to 100 nM
CN(C)C/C=C/C(=O)NCC(=O)Nc1ccc(CN2CCN(c3cncc(Nc4ccc(-c5ccc(N6CCCC6=O)cc5)cn4)c3)C2=O)cc1 [Example 172, (E)-4-(dimethylamino)-N-(2-oxo-2-((4-((2-oxo-3-(5-((5-(4-(2-oxopyrrolidin-1-yl)phenyl)pyridin-2-yl)amino)pyridin-3-yl)imidazolidin-1-yl)methyl)phenyl)amino)ethyl)but-2-enamide] | 10 to 100 nM | 1 to 10 nM
Cc1cc(Nc2cnc3c(c2)N2C(=O)CC[C@H]2CO3)ncc1-c1ccc(N2CCCC2=O)cc1 [Example 176, (S)-2-((4-methyl-5-(4-(2-oxopyrrolidin-1-yl)phenyl)pyridin-2-yl)amino)-6,6a,7,8-tetrahydro-9H-pyrido[2,3-b]pyrrolo[1,2-d][1,4]oxazin-9-one] | 10 to 100 nM | 1 to 10 nM
Cc1cc(-c2ccc(N3CCCC3=O)cc2)cnc1Nc1cnc2c(c1)N1C(=O)CC[C@H]1CO2 [Example 194, (S)-2-((3-methyl-5-(4-(2-oxopyrrolidin-1-yl)phenyl)pyridin-2-yl)amino)-6,6a,7,8-tetrahydro-9H-pyrido[2,3-b]pyrrolo[1,2-d][1,4]oxazin-9-one] | > 1000 nM | > 1000 nM
COc1nc(Nc2cnc3c(c2)N2C(=O)CC[C@H]2CO3)ncc1-c1ccc(N2CCCC2=O)cc1 [Example 195, (S)-2-((4-methoxy-5-(4-(2-oxopyrrolidin-1-yl)phenyl)pyrimidin-2-yl)amino)-6,6a,7,8-tetrahydro-9H-pyrido[2,3-b]pyrrolo[1,2-d][1,4]oxazin-9-one] | 1 to 10 nM | ≤ 1 nM

The remaining lines, values ahead:

IC50 (PIP4K2B) | IC50 (PIP4K2A) | SMILES
10 to 100 nM | 10 to 100 nM | O=C1CCCN1c1ccc(-c2ccc(Nc3cnc4c(c3)N3C(=O)CC[C@@H]3CO4)nc2)cc1F [Example 173, (R)-2-((5-(3-fluoro-4-(2-oxopyrrolidin-1-yl)phenyl)pyridin-2-yl)amino)-6,6a,7,8-tetrahydro-9H-pyrido[2,3-b]pyrrolo[1,2-d][1,4]oxazin-9-one]
10 to 100 nM | 1 to 10 nM | CC(C)c1cc(Nc2cnc3c(c2)N2C(=O)CC[C@H]2CO3)ncc1-c1ccc(N2CCCC2=O)c(F)c1 [Example 181, (S)-2-((5-(3-fluoro-4-(2-oxopyrrolidin-1-yl)phenyl)-4-isopropylpyridin-2-yl)amino)-6,6a,7,8-tetrahydro-9H-pyrido[2,3-b]pyrrolo[1,2-d][1,4]oxazin-9-one]
10 to 100 nM | 1 to 10 nM | O=C1CCCN1c1ccc(-c2cnc(Nc3cnc4c(c3)N3C(=O)CC[C@H]3CO4)cc2C2CC2)cc1F [Example 182, (S)-2-((4-cyclopropyl-5-(3-fluoro-4-(2-oxopyrrolidin-1-yl)phenyl)pyridin-2-yl)amino)-6,6a,7,8-tetrahydro-9H-pyrido[2,3-b]pyrrolo[1,2-d][1,4]oxazin-9-one]
10 to 100 nM | 10 to 100 nM | O=C1CCCN1c1ccc(-c2cnc(Nc3cnc4c(c3)N3C(=O)CC[C@H]3CO4)nc2)cc1F [Example 187, (S)-2-((5-(3-fluoro-4-(2-oxopyrrolidin-1-yl)phenyl)pyrimidin-2-yl)amino)-6,6a,7,8-tetrahydro-9H-pyrido[2,3-b]pyrrolo[1,2-d][1,4]oxazin-9-one]
1 to 10 nM | 10 to 100 nM | Cc1nc(Nc2cnc3c(c2)N2C(=O)CC[C@H]2CO3)ncc1-c1ccc(N2CCCC2=O)cc1 [Example 196, (S)-2-((4-methyl-5-(4-(2-oxopyrrolidin-1-yl)phenyl)pyrimidin-2-yl)amino)-6,6a,7,8-tetrahydro-9H-pyrido[2,3-b]pyrrolo[1,2-d][1,4]oxazin-9-one]
1 to 10 nM | 1 to 10 nM | Cc1cc(N2CCCC2=O)ccc1-c1cnc(Nc2cnc3c(c2)N2C(=O)CC[C@H]2CO3)nc1 [Example 198, (S)-2-((5-(2-methyl-4-(2-oxopyrrolidin-1-yl)phenyl)pyrimidin-2-yl)amino)-6,6a,7,8-tetrahydro-9H-pyrido[2,3-b]pyrrolo[1,2-d][1,4]oxazin-9-one]
1 to 10 nM | 1 to 10 nM | Nc1nc(Nc2cnc3c(c2)N2C(=O)CC[C@H]2CO3)ncc1-c1ccc(N2CCCC2=O)cc1 [Example 199, (S)-2-((4-amino-5-(4-(2-oxopyrrolidin-1-yl)phenyl)pyrimidin-2-yl)amino)-6,6a,7,8-tetrahydro-9H-pyrido[2,3-b]pyrrolo[1,2-d][1,4]oxazin-9-one]
